Entries after “also recorded” stand apart in the source; their conditions may differ.
Experiments:
NAD+ = assay: Experiment 3: NAD+ in blood by LC/MS/MS, oral dosing twice daily for five days; format: in vivo, Sprague-Dawley male rats; details: Nicotinamide control (coated nicotinamide 108 mg/kg PO BID), relative to RiaGev dose-response line, FIG. 11
Experimental: Eighteen Sprague-Dawley male rats were selected as test animals in the study, with three rats for each of six treatment groups. Sprague-Dawley male rats were selected because they have been widely used in similar experiments with reliable results. The use of three rats per group offers the minimum number required to calculate useful means and standard deviations for graphical representation of the data. For five consecutive days, the rats were dosed at approximately 7:30-8:30 a.m. and at approximately 4:30-5:45 p.m. Blood was collected approximately 0.5 to 1.5 hours following each p.m. dosing and immediately processed and assayed for NAD+, NMN, and NR by LC/MS/MS. The timing of the supplementation doses was chosen to mimic behavior in humans and other non-nocturnal mammals (i.e., diurnal mammals) of eating breakfast in the morning and dinner in the early evening by administering the doses to the animals at around those times. […] Thus the evening sampling time for the rats would correspond to the morning for humans and other diurnal mammals. The animals were humanely euthanized after the final blood draw and representative samples of the liver, biceps muscle, peripheral adipose tissue, and whole brain were collected, snap frozen, extracted, and assayed for NAD+, NMN, and NR by LC/MS/MS. […]

NR levels = assay: Experiment 1: NR levels in blood by LC/MS after bolus administration; format: in vivo, Sprague-Dawley rats; details: male rats, bolus 100 mg/kg, 0.25-24 hours after feeding, compared to baseline, FIG. 2
Experimental: Four groups of four male Sprague-Dawley rats were each bolus administered the different compounds identified in the table below at a dosage of 100 mg per kg of body weight: [table] The blood drawn from each of the groups at the increments referenced above were also measured by LC/MS for NR levels. The measured NR levels are charted in FIG. 2, with each data point being the average of three animals of the same sex.

NAD levels = assay: Experiment 1: NAD levels in blood by LC/MS after bolus administration; format: in vivo, Sprague-Dawley rats; details: for NAD levels in blood: male rats, bolus 100 mg per kg of body weight, 0.25-24 hours after feeding, compared to baseline, FIG. 1
Experimental: Four groups of four male Sprague-Dawley rats were each bolus administered the different compounds identified in the table below at a dosage of 100 mg per kg of body weight:
A blood sample of 0.1 ml was drawn from each rat of each group at increments of 0.25, 0.5, 1, 2, 4, 8 and 24 hours after feeding. Each of the blood samples were then measured by Liquid Chromatography/Mass Spectrometry (LC/MS) for NAD levels. The measured NAD levels are charted in FIG. 1, with each data point being the average of the four rats of each group.

SMILES	blood NAD concentration change over its base (water control) level (NAD+)	NR levels in blood (NR levels)	NAD levels in blood (NAD levels)	time to peak blood NAD level (NAD levels; after consumption)
NC(=O)c1cccnc1 [Nicotinamide]	outside of the line	–	–	–
O=C(O)c1cccnc1 [Niacin, Nicotinic Acid (Niacin)]	–	enhance NR levels	elevated NAD levels	–
NC(=O)c1ccc[n+]([C@@H]2O[C@H](CO)[C@@H](O)[C@H]2O)c1 [Nicotinamide Riboside (NR), Nicotinamide Riboside]	–	–	highest peak value	about 8 hours
O=C[C@H](O)[C@H](O)[C@H](O)CO [D-ribose]	–	enhance NR levels	elevated NAD levels; also recorded: increases NAD levels	–

Reference: patent US20210186997A1, “METHODS AND COMPOSITIONS FOR INCREASING NAD LEVEL IN MAMMALS WITH D-RIBOSE AND VITAMIN B3” (Bioenergy Life Science, Inc., priority 2018, published 2021)
